Reference: article PMC3984256, “A PCNA-Derived Cell Permeable Peptide Selectively Inhibits Neuroblastoma Cell Growth” (PLoS ONE, 2014)
Where a SMILES comes first, the peptide text is derived from it. [ ]: non-standard residue; d: D form.

Columns and labels:
[1] = test system: breast, lung, and pancreatic cancer cell lines; assay: Toxicity to breast, lung, and pancreatic cancer cell lines (data not shown); assay type: cell-based; settings: in comparison with non-malignant cell lines of respective tissue origins
[2] = test system: PCNA and POLD3 co-localization in SK-N-AS NB cells; assay: PCNA/POLD3 co-localization, immunofluorescence; assay type: cell-based, human; settings: synchronized, 30 µM peptide 6 h after mimosine release
Procedure: Cells were seeded at 1×10^5/ml onto a chamber slide and were allowed to attach overnight. To analyze the interaction of PCNA with FEN1, LIGI, or Pol ä, we first synchronize cells at the G1/S boundary. The synchronization is achieved by starving cells in medium containing 0.25% FBS for 24 h. Cells were further cultured in the complete medium containing 400 µM of mimosine for 24 h. To release cells into S phase, cells were washed and incubated in mimosine-free medium containing 30 µM R9-caPep or R9-srbPep for 6 h. We pre-determined that the majority of cells were in the S-phase 6 h after mimosine was removed (data not shown). Cells were fixed in ice-cold methanol:acetone (50%:50%) for 10 min or in 4% paraformaldehyde for 20 min at room temperature. Cells were incubated with a goat polyclonal anti-PCNA antibody (Santa Cruz) and a mouse monoclonal anti-FEN1 antibody (Santa Cruz), a mouse anti-POLD3 antibody (Sigma, St. Louis, MO), or a mouse anti-LIGI antibody (Abcam, Cambridge, MA) for 1 h at room temperature. After being washed with PBS, cells were incubated with Alexa Fluor 488 conjugated anti-mouse IgG and Alexa Fluor 555 conjugated anti-goat IgG antibodies (Invitrogen, Grand Island, NY) for 1 h. Cells were mounted in Vectashield with DAPI (Vector Labs, Burlingame, CA) and visualized by a confocal microscope.

## CC[C@H](C)[C@H](NC(=O)CNC(=O)[C@H](CC(C)C)NC(=O)[C@H](CS)NC(=O)[C@H](CS)NC(=O)[C@@H](CCCNC(=N)N)NC(=O)[C@@H](CCCNC(=N)N)NC(=O)[C@@H](CCCNC(=N)N)NC(=O)[C@@H](CCCNC(=N)N)NC(=O)[C@@H](CCCNC(=N)N)NC(=O)[C@@H](CCCNC(=N)N)NC(=O)[C@@H](CCCNC(=N)N)NC(=O)[C@@H](CCCNC(=N)N)NC(=O)[C@H](N)CCCNC(=N)N)C(=O)N1CCC[C@H]1C(=O)N[C@@H](CCC(=O)O)C(=O)N[C@@H](CCC(N)=O)C(=O)N[C@@H](CCC(=O)O)C(=O)N[C@@H](Cc1ccc(O)cc1)C(=O)O [R9-caPep] (H-[dR][dR][dR][dR][dR][dR][dR][dR][dR]CCLGIPEQEY-OH; N-terminus and C-terminus assumed)
[1]
  toxicity to breast, lung, and pancreatic cancer cell lines vs non-malignant lines: selectively toxic to breast, lung, and pancreatic cancer cell lines
[2]
  recruitment of POLD3 to PCNA: did not seem to affect the recruitment of POLD3 to PCNA
